Values quoted from earlier work as cited in US8481087B2, “Withania somnifera plant extract and method of preparation thereof” (National Brain Research Centre, priority 2008, dated 2013).

Test system: severely damaged neurons
Conditions: severely damaged neurons in vitro

CC1=C(C)C(=O)O[C@@H]([C@](C)(O)[C@H]2CC[C@H]3[C@@H]4[C@@H]5O[C@@H]5[C@@]5(O)CC=CC(=O)[C@]5(C)[C@H]4CC[C@]23C)C1 [Withanolide-A]
neurite regeneration and synapse reconstruction: regenerate neurites and reconstruct synapses
